Results as given in ChEMBL document CHEMBL1145558, “3,5-Dihydro-imidazo[4,5-d]pyridazin-4-ones: a class of potent DPP-4 inhibitors” (Bioorg Med Chem Lett, 2008).

How the values were obtained:
[1] = molecular target: T1, Muscarinic acetylcholine receptor M1 (Homo sapiens, UniProt P11229); assay: Displacement of [N-methyl-3H]scopolamine from human recombinant muscarinic receptor M1 expressed in CHO cell membrane; format: cell membranes
T1 sequence (P11229 whole entry): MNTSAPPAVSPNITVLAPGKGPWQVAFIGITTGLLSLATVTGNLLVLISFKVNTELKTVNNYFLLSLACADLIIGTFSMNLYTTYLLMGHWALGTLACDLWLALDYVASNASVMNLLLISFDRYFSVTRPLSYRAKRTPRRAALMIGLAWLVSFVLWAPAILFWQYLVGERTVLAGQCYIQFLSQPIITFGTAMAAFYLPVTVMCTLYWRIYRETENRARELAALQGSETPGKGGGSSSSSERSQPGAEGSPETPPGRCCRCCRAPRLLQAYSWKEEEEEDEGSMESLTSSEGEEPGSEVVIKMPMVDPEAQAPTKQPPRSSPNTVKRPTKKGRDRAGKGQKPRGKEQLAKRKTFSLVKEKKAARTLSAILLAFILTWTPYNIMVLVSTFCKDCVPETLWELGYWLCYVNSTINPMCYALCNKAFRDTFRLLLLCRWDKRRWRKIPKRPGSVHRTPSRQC

Rattus norvegicus [2] = species on record: Rattus norvegicus; assay: animal or person; conditions: Plasma, po, 7 h, read-out: Inhibition
Description: Ex vivo inhibition of DPP4 in rat plasma at 10 mg/kg, po after 7 hrs

hERG (KCNH2) = hERG (KCNH2) (Homo sapiens, UniProt Q12809); assay: Inhibition of human ERG assessed as channel current activity at 1 uM; parameters: scale not given: the % may be the effect or the level left; conditions: read-out: Activity
Cytochrome P450 3A4 = Cytochrome P450 3A4 (Homo sapiens, UniProt P08684); assay: Inhibition of CYP3A4; format: ADME
Cytochrome P450 2D6 = Cytochrome P450 2D6 (Homo sapiens, UniProt P10635); assay: Inhibition of CYP2D6; format: ADME
Cytochrome P450 2C9 = Cytochrome P450 2C9 (Homo sapiens, UniProt P11712); assay: Inhibition of CYP2C9; format: ADME
Cytochrome P450 2C19 = Cytochrome P450 2C19 (Homo sapiens, UniProt P33261); assay: Inhibition of CYP2C19; format: ADME
Cytochrome P450 1A2 = molecular target: T2, Cytochrome P450 1A2 (Homo sapiens, UniProt P05177); assay: Inhibition of CYP1A2; format: ADME
T2 sequence (P05177 whole entry): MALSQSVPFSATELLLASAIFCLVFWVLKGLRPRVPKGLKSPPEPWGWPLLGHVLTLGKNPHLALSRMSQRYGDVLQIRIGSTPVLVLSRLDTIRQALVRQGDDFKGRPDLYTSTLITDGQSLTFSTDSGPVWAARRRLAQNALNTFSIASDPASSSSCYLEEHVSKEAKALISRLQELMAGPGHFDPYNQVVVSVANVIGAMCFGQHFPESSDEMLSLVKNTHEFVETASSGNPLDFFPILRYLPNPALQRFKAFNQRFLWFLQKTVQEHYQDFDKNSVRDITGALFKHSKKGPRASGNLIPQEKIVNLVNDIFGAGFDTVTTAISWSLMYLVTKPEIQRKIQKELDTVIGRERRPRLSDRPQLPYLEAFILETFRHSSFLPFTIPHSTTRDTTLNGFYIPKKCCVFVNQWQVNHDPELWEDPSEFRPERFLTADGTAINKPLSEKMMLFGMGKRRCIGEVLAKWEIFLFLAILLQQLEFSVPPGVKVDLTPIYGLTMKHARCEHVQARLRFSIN

[3] = Metabolic stability in human liver cytosol assessed as half life; format: ADME, tissue-based
[4] = Metabolic stability in human liver microsomes assessed as half life; format: ADME, Microsome
[5] = Clearance in rat; format: ADME, organism-based; conditions: in vivo
[6] = Volume of distribution at steady state in rat; format: ADME, organism-based; conditions: in vivo, read-out: Vdss
[7] = Mean residence time in rat; format: ADME, organism-based; conditions: in vivo
[8] = Oral bioavailability in rat; format: ADME, organism-based; conditions: in vivo
Rattus norvegicus [9] = assay: Ex vivo inhibition of DPP4 in rat plasma at 10 mg/kg, po after 24 hrs; format: functional; parameters: scale not given: the % may be the effect or the level left

Chain of Cytochrome P450 2D6 (P10635 whole entry): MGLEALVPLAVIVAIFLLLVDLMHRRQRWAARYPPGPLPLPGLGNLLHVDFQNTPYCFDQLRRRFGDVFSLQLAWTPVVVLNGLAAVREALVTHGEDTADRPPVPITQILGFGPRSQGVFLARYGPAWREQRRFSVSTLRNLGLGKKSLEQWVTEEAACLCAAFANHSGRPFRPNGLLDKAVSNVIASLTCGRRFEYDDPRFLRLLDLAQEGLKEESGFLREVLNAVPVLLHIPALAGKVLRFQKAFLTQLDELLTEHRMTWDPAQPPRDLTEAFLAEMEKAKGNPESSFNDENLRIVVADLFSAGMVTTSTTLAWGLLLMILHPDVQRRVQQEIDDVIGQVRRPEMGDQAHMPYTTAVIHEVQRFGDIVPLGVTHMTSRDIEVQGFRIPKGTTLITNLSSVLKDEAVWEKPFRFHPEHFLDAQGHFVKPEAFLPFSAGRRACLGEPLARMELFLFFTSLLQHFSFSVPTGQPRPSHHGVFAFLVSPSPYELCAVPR
Chain of Cytochrome P450 2C19 (P33261 whole entry): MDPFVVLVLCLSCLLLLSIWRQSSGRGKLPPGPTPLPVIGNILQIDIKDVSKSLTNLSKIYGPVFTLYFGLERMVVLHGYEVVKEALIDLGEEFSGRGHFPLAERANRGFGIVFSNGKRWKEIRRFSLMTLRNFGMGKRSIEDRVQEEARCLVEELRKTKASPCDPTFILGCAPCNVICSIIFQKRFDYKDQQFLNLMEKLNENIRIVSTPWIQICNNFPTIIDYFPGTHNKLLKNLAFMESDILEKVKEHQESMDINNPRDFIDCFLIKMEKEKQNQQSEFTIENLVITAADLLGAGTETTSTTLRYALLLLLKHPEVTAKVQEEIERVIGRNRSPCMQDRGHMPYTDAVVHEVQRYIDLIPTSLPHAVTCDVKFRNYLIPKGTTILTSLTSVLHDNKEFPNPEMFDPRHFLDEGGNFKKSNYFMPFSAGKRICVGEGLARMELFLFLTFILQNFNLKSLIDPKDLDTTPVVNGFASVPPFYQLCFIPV
Chain of Cytochrome P450 3A4 (P08684 whole entry): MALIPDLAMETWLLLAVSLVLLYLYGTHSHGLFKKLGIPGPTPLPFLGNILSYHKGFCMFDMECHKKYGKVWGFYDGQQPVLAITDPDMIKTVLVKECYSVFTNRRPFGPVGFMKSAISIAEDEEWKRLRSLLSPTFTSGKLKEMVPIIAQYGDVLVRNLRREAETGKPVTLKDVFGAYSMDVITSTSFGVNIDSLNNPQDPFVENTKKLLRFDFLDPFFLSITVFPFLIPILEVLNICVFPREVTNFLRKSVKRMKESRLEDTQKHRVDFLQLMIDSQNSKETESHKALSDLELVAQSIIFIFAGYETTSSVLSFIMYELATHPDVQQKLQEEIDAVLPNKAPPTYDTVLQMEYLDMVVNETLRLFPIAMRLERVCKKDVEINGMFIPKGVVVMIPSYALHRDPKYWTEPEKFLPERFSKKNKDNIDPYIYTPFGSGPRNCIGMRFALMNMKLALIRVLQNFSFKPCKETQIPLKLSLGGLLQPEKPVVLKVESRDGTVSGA
Chain of Cytochrome P450 2C9 (P11712 whole entry): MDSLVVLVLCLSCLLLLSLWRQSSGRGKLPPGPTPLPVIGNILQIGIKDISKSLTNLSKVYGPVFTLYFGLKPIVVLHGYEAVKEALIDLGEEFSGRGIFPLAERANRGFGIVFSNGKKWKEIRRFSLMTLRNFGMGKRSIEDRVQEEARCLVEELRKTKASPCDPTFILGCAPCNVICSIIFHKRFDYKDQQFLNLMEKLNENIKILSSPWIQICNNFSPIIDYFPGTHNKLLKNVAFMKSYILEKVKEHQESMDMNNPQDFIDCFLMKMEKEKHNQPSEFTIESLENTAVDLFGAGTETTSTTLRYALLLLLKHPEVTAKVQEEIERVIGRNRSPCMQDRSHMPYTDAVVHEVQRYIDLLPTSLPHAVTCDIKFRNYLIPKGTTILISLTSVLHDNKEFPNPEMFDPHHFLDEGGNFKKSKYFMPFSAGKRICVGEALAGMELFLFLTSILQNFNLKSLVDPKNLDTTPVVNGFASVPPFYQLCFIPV
Chain of hERG (KCNH2) (Q12809 whole entry): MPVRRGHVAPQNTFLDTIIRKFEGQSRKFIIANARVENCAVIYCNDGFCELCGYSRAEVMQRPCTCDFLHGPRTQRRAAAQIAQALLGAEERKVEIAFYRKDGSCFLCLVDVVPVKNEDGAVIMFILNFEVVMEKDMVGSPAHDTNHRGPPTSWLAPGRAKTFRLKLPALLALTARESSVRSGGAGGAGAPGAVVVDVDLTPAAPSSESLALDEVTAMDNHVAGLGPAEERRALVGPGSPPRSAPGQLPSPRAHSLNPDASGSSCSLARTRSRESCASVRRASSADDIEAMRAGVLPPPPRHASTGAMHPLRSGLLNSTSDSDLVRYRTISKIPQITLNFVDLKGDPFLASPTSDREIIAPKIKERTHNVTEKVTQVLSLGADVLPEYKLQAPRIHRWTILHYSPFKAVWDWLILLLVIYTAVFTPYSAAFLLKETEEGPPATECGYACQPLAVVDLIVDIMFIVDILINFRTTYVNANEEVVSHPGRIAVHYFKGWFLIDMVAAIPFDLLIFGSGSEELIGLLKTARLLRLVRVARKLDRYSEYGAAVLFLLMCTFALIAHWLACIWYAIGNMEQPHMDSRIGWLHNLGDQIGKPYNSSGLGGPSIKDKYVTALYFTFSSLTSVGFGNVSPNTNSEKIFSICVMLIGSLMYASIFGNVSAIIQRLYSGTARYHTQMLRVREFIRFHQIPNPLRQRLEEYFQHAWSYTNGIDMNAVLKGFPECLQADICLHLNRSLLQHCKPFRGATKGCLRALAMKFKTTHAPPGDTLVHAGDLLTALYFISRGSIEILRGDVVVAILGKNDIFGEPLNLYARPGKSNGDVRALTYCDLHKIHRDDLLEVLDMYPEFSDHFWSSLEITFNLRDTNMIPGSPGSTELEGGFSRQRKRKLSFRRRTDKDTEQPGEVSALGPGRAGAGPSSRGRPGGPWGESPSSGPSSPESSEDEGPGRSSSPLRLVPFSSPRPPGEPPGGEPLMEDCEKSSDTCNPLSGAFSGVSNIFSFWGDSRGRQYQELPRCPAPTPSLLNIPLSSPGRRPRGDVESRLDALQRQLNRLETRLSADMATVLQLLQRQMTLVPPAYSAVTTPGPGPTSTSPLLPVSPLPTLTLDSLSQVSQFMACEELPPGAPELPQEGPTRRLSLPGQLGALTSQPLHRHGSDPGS

SMILES | IC50 [1] [nM] | inhibition in vivo at 10 mg/kg (Rattus norvegicus [2]) [%] | also measured
CC#CCn1c(N2CCC[C@@H](N)C2)nc2cnn(CC3=Nc4ccccc4Oc4ccccc43)c(=O)c21 | > 5000 | 63 | 
CC#CCn1c(N2CCC[C@@H](N)C2)nc2cnn(Cc3nc(C)c4ccccc4n3)c(=O)c21 | 1190 | 80 | activity at 1 µM (hERG (KCNH2)): 88%; Inhibition (Cytochrome P450 3A4): > 50 µM; Inhibition (Cytochrome P450 2D6): > 50 µM; Inhibition (Cytochrome P450 2C9): > 50 µM; Inhibition (Cytochrome P450 2C19): > 50 µM; Inhibition (Cytochrome P450 1A2): > 50 µM; half-life [3]: > 1.5 h; half-life [4]: > 1.5 h; clearance [5]: 56 mL/min/kg; Vd [6]: 40 L/kg; MRT [7]: 8.8 h; bioavailability [8]: 15%; Activity (Rattus norvegicus [9]): 71%
CC#CCn1c(NC[C@H](C)N)nc2cnn(Cc3nc(C)c4ccccc4n3)c(=O)c21 | > 5000 | 50 | 
CC#CCn1c(N2CCC[C@H](N)C2)nc2cnn(CC3=Nc4ccccc4Oc4ccccc43)c(=O)c21 |  | 9 | 
CC#CCn1c(N2CCC[C@@H](N)C2)nc2c(C)nn(Cc3nc(C)c4ccccc4n3)c(=O)c21 | 93 | 76 | 
CC#CCn1c(N2CCCNCC2)nc2cnn(Cc3nc(C)c4ccccc4n3)c(=O)c21 | 954 | 20 | 
CC#CCn1c(N2CCNCC2)nc2cnn(Cc3nc(C)c4ccccc4n3)c(=O)c21 | 2800 | 45 | 
CC#CCn1c(N2CCCC(N)C2)nc2cnn(Cc3ccc(C#N)c4ccccc34)c(=O)c21 (centres undefined) | 862 | 84 | 
CC#CCn1c(NCCN)nc2cnn(Cc3nc(C)c4ccccc4n3)c(=O)c21 | > 5000 | 29 | 
CC#CCn1c(N2CCCC(N)C2)nc2cnn(Cc3nc4ccccc4o3)c(=O)c21 (centres undefined) |  | 64 | 
CC#CCn1c(N2CCCC(N)C2)nc2cnn(CC3=Nc4ccccc4Oc4ccccc43)c(=O)c21 (centres undefined) | 5610 | 73 | 
CC#CCn1c(N2CCCC(N)C2)nc2cnn(CC(=O)c3ccccc3)c(=O)c21 (centres undefined) |  | 8 | 
